Measured values as given in PubChem BioAssay AID256 (DTP/NCI, 2004).
Values joined by “and” are separate entries in the source; they are usually repeats but may differ in a detail not shown here. Identical values can stand only once. Inconclusive results and toxic doses are left out. The calls were made as follows: active = survival T/C of 150% or more; inactive = T/C below 125% in these data. Non-standard residues stand in square brackets, D forms with d. Residues, ends and D or L forms follow the SMILES beside them. ξ: configuration not given here. *: point of attachment. Cbz = O=C(OCc1ccccc1)*; ξV = CC(C)C(N)C(=O)O

System: CD2F1 mice, L1210 leukemia ip, survival T/C
Test: NCI In Vivo Anticancer Drug Screen. Data for tumor model L1210 Leukemia (intraperitoneal) in CD2F1 (CDF1) mice
Details: endpoint: mean survival time, higher = longer survival
Method in brief: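 In this screen, transplantable tumors were grown in mice given either the compound or its vehicle. Results were expressed as the treated measurement relative to the control measurement.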

[1] = dose: 12.5 mg/kg/injection, schedule: Q01DX009 (ip), vehicle: saline
[2] = dose: 25.0 mg/kg/injection, schedule: Q01DX009 (ip), vehicle: saline
[3] = dose: 50.0 mg/kg/injection, schedule: Q01DX009 (ip), vehicle: saline
[4] = dose: 12.5 mg/kg/injection, schedule: Q04DX003 (ip), vehicle: Klucel (hydroxypropylcellulose) (HPC)
[5] = dose: 25.0 mg/kg/injection, schedule: Q04DX003 (ip), vehicle: Klucel (hydroxypropylcellulose) (HPC)
[6] = dose: 50.0 mg/kg/injection, schedule: Q04DX003 (ip), vehicle: Klucel (hydroxypropylcellulose) (HPC)
[7] = dose: 100.0 mg/kg/injection, schedule: Q01DX001 (ip), vehicle: saline with Tween-80
[8] = dose: 200.0 mg/kg/injection, schedule: Q01DX001 (ip), vehicle: saline with Tween-80
[9] = dose: 100.0 mg/kg/injection, schedule: Q01DX001 (ip), vehicle: saline
[10] = dose: 400.0 mg/kg/injection, schedule: Q01DX001 (ip), vehicle: saline with Tween-80
[11] = dose: 100.0 mg/kg/injection, schedule: Q01DX009 (ip), vehicle: saline with Tween-80
[12] = dose: 200.0 mg/kg/injection, schedule: Q01DX009 (ip), vehicle: saline with Tween-80
[13] = dose: 100.0 mg/kg/injection, schedule: Q04DX003 (ip), vehicle: saline with Tween-80
[14] = dose: 200.0 mg/kg/injection, schedule: Q04DX003 (ip), vehicle: saline with Tween-80
[15] = dose: 400.0 mg/kg/injection, schedule: Q04DX003 (ip), vehicle: saline with Tween-80
[16] = dose: 400.0 mg/kg/injection, schedule: Q01DX009 (ip), vehicle: saline with Tween-80
[17] = dose: 50.0 mg/kg/injection, schedule: Q01DX009 (ip), vehicle: saline with Tween-80

Measured: T/C

O=C(O)C(=O)O.O=N[O-].O=N[O-].[Co+2].[NH2-].[NH2-]
inactive: dose: 25.0 mg/kg/injection, schedule: Q04DX002 (ip), vehicle: saline with Tween-80 93 % of control | dose: 50.0 mg/kg/injection, schedule: Q04DX002 (ip), vehicle: saline with Tween-80 117 % of control | dose: 100.0 mg/kg/injection, schedule: Q04DX002 (ip), vehicle: saline with Tween-80 98 % of control

C=C1CC2(OC1=O)C(=O)N(C)c1ccc(I)cc12 (centres undefined)
inactive: dose: 6.25 mg/kg/injection, schedule: Q01DX009 (ip), vehicle: saline 100 % of control and 104 % of control | [1] 100 % of control and 112 % of control | [2] 117 % of control and 102 % of control | [3] 105 % of control

CC(=O)OC1C=C2CCC3C(CCC4(C)C(OC(C)=O)CCC34)C2(C)CC1 (centres undefined)
inactive: [4] 106 % of control | [5] 103 % of control | [6] 106 % of control

CCOC(=O)C1C(=O)N(C)C(=O)N1C (centres undefined)
inactive: dose: 5.56 mg/kg/injection, schedule: Q01DX009 (ip), vehicle: water 89 % of control | dose: 8.33 mg/kg/injection, schedule: Q01DX009 (ip), vehicle: water 90 % of control | dose: 12.5 mg/kg/injection, schedule: Q01DX009 (ip), vehicle: water 121 % of control and 92 % of control | dose: 25.0 mg/kg/injection, schedule: Q01DX009 (ip), vehicle: water 95 % of control | dose: 50.0 mg/kg/injection, schedule: Q01DX009 (ip), vehicle: water 93 % of control | dose: 100.0 mg/kg/injection, schedule: Q01DX009 (ip), vehicle: water 95 % of control | dose: 200.0 mg/kg/injection, schedule: Q01DX009 (ip), vehicle: water 98 % of control

O=[N+]([O-])c1cc(Cl)c(Cl)cc1[N+](=O)[O-]
inactive: [7] 90 % of control | [8] 90 % of control

C1CCC(CCC2CCCC[N-]2)[N-]C1.[I][Co][I] (centres undefined)
inactive: dose: 25.0 mg/kg/injection, schedule: Q01DX001 (ip), vehicle: saline with Tween-80 95 % of control | dose: 50.0 mg/kg/injection, schedule: Q01DX001 (ip), vehicle: saline with Tween-80 86 % of control | [7] 123 % of control | [9] 103 % of control

Cc1cc(O)c2c(c1O)C(=O)c1c(O)ccc(O)c1C2=O
inactive: [9] 95 % of control | dose: 200.0 mg/kg/injection, schedule: Q01DX001 (ip), vehicle: saline 95 % of control | dose: 400.0 mg/kg/injection, schedule: Q01DX001 (ip), vehicle: saline 97 % of control

CC12CCC(O)CC1CCC1C2CCC2(C)C(C3=CC(=O)OC3)CCC12O (centres undefined)
inactive: [4] 92 % of control | [5] 100 % of control | [6] 92 % of control

O=C1CCC([N+](=O)[O-])C(c2cccc3ccccc23)N1 (centres undefined)
inactive: [7] 94 % of control | [8] 94 % of control | [10] 97 % of control

O=P(Nc1ccccc1)(OCc1ccccc1)N(CCCl)CCCl (centres undefined)
inactive: dose: 62.5 mg/kg/injection, schedule: Q01DX010 (ip), vehicle: saline 104 % of control | dose: 125.0 mg/kg/injection, schedule: Q01DX010 (ip), vehicle: saline 103 % of control | dose: 250.0 mg/kg/injection, schedule: Q01DX010 (ip), vehicle: saline 101 % of control

CCCCC(CC)COP(OCC(CC)CCCC)OCC(CC)CCCC (centres undefined)
inactive: [11] 92 % of control | [12] 87 % of control

O=C(Nc1cccc2ccccc12)[C@H]1C[C@H]2C=C[C@@H]1C2
inactive: dose: 37.5 mg/kg/injection, schedule: Q01DX009 (ip), vehicle: saline with Tween-80 101 % of control | dose: 75.0 mg/kg/injection, schedule: Q01DX009 (ip), vehicle: saline with Tween-80 95 % of control | dose: 150.0 mg/kg/injection, schedule: Q01DX009 (ip), vehicle: saline with Tween-80 95 % of control | dose: 300.0 mg/kg/injection, schedule: Q01DX009 (ip), vehicle: saline with Tween-80 97 % of control

O=C1OC(=O)C2C3C=CC(O3)C12 (centres undefined)
inactive: dose: 10.0 mg/kg/injection, schedule: Q01DX009 (ip), vehicle: saline with Tween-80 100 % of control | [1] 105 % of control | dose: 12.5 mg/kg/injection, schedule: Q04DX003 (ip), vehicle: saline 95 % of control | dose: 20.0 mg/kg/injection, schedule: Q01DX009 (ip), vehicle: saline with Tween-80 98 % of control | [2] 94 % of control | dose: 25.0 mg/kg/injection, schedule: Q04DX002 (ip), vehicle: saline 104 % of control | dose: 25.0 mg/kg/injection, schedule: Q04DX003 (ip), vehicle: saline 98 % of control | [3] 102 % of control | dose: 50.0 mg/kg/injection, schedule: Q04DX002 (ip), vehicle: saline 104 % of control | dose: 50.0 mg/kg/injection, schedule: Q04DX003 (ip), vehicle: saline 95 % of control | dose: 100.0 mg/kg/injection, schedule: Q04DX002 (ip), vehicle: saline 97 % of control and 98 % of control

O=S(=O)(OCCOC(c1ccccc1)(c1ccccc1)c1ccccc1)c1ccc(Br)cc1
inactive: [13] 94 % of control | [14] 90 % of control | [15] 98 % of control

COC(=O)C(NC(=O)CNC(=O)OCc1ccccc1)C(C)C (stereo not drawn) (Cbz-Gly-[ξV]-OMe)
inactive: [13] 100 % of control | [14] 97 % of control | [15] 99 % of control

Nc1c(Cl)cccc1Cl (tested in a mixture with another compound)
inactive: [7] 89 % of control | [11] 99 % of control | [8] 91 % of control | [12] 98 % of control | [10] 91 % of control | [16] 107 % of control

O=[N+]([O-])c1cccc(N=Cc2ccc3c(c2)OCO3)c1
inactive: dose: 100.0 mg/kg/injection, schedule: Q04DX003 (ip), vehicle: alcohol 105 % of control | dose: 200.0 mg/kg/injection, schedule: Q04DX003 (ip), vehicle: alcohol 108 % of control | dose: 400.0 mg/kg/injection, schedule: Q04DX003 (ip), vehicle: alcohol 97 % of control

CC1(c2ccccc2)CCc2ccccc21 (centres undefined)
inactive: [11] 97 % of control | [12] 95 % of control | [16] 95 % of control

CCOC(=O)CCCCCSc1nn(C2OC(COC(=O)c3ccccc3)C(OC(=O)c3ccccc3)C2OC(=O)c2ccccc2)c(=O)[nH]c1=O (centres undefined)
inactive: dose: 12.5 mg/kg/injection, schedule: Q01DX005 (ip), vehicle: distilled water + Tween-80 101 % of control | dose: 25.0 mg/kg/injection, schedule: Q01DX005 (ip), vehicle: distilled water + Tween-80 107 % of control | dose: 50.0 mg/kg/injection, schedule: Q01DX005 (ip), vehicle: distilled water + Tween-80 95 % of control | dose: 100.0 mg/kg/injection, schedule: Q01DX005 (ip), vehicle: distilled water + Tween-80 106 % of control | dose: 200.0 mg/kg/injection, schedule: Q01DX005 (ip), vehicle: distilled water + Tween-80 107 % of control

COC(=O)c1ccc(N=NN(C)C)cc1
inactive: dose: 23.0 mg/kg/injection, schedule: Q01DX009 (ip), vehicle: Klucel (hydroxypropylcellulose) (HPC) 108 % of control | dose: 39.0 mg/kg/injection, schedule: Q01DX009 (ip), vehicle: Klucel (hydroxypropylcellulose) (HPC) 108 % of control | dose: 65.0 mg/kg/injection, schedule: Q01DX009 (ip), vehicle: Klucel (hydroxypropylcellulose) (HPC) 116 % of control

COc1cc(Cl)ccc1NC(=O)Nc1c(C)n(C)n(-c2ccccc2)c1=O
inactive: [17] 90 % of control | [11] 90 % of control

O=C1OC(O)C(Br)=C1Br (centres undefined)
inactive: dose: 100.0 mg/kg/injection, schedule: Q04DX002 (ip), vehicle: Klucel (hydroxypropylcellulose) (HPC) 105 % of control | dose: 200.0 mg/kg/injection, schedule: Q04DX002 (ip), vehicle: Klucel (hydroxypropylcellulose) (HPC) 91 % of control | dose: 400.0 mg/kg/injection, schedule: Q04DX002 (ip), vehicle: Klucel (hydroxypropylcellulose) (HPC) 89 % of control

ClC1C2CCC(C2)C1(Cl)Cl (centres undefined)
inactive: dose: 0.3 mg/kg/injection, schedule: Q01DX001 (ip), vehicle: saline with Tween-80 100 % of control | dose: 0.6 mg/kg/injection, schedule: Q01DX001 (ip), vehicle: saline with Tween-80 103 % of control | dose: 1.2 mg/kg/injection, schedule: Q01DX001 (ip), vehicle: saline with Tween-80 102 % of control

O=C(Cl)c1ccc([N+](=O)[O-])cc1
inactive: [17] 96 % of control | [11] 101 % of control | [12] 104 % of control
